The target in this test is T1, cytochrome c (Saccharomyces cerevisiae, UniProt P00044, C108T).
T1 construct: gene CYC1; 15N-labeled cytochrome c C102T, residues numbered from -5 to 103
In words: 1H-15N HSQC NMR titration, […] binding model, […] °C, pH […].

In paper PMC9737847, “Complex Formation between Cytochrome c and a Tetra-alanino-calix[4]arene” (International Journal of Molecular Sciences, 2022) one finds Kd data, which are given here for one compound.

T1 sequence (P00044 2-109 C108T): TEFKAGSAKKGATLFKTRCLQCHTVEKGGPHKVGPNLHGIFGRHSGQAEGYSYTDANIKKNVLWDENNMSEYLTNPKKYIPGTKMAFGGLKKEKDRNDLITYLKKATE

Consider `C[C@H](NC(=O)c1cc2c3c(c1)Cc1cc(C(=O)N[C@@H](C)C(=O)O)cc4c1OCCOCCOc1c(cc(C(=O)N[C@@H](C)C(=O)O)cc1Cc1cc(C(=O)N[C@@H](C)C(=O)O)cc(c1OCCOCCO3)C2)C4)C(=O)O` [compound 1, Tetra-alanino-calix[4]arene-biscrown-3], for which the equilibrium dissociation constant (Kd) was approximately 400 µM.

As usually defined, the Kd is a measure of binding affinity in units of concentration. Higher therefore signals lower affinity.
